{"source": "patent US20060069132A1", "about": "“Azolecarboxamide herbicides” (priority 2004, published 2006)", "key": {"barnyardgrass": {"tested_on": "barnyardgrass", "assay": "Test A pre-/postemergence herbicide test", "format": "in vivo, Echinochloa crus-galli", "how_it_was_run": "(§1)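 Greenhouse injury scoring (0–100, complete control = 100) at approximately ten days follows simultaneous pre- and postemergence application. Soil received a directed spray after seeding; seedlings of 2–10 cm at the one- to two-leaf stage were sprayed to runoff.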"}, "giant foxtail": {"tested_on": "giant foxtail", "assay": "Test A pre-/postemergence herbicide test", "format": "in vivo, Setaria faberi", "how_it_was_run": "as §1"}, "redroot pigweed": {"tested_on": "redroot pigweed", "assay": "Test A pre-/postemergence herbicide test", "format": "in vivo, Amaranthus retroflexus", "how_it_was_run": "as §1"}, "bermudagrass": {"tested_on": "bermudagrass", "assay": "Test C pre-/postemergence herbicide test", "format": "in vivo, Cynodon dactylon"}, "cocklebur": {"tested_on": "cocklebur", "assay": "Test C pre-/postemergence herbicide test", "format": "in vivo, Xanthium strumarium"}, "woolly cupgrass": {"tested_on": "woolly cupgrass", "assay": "Test C pre-/postemergence herbicide test", "format": "in vivo, Eriochloa villosa"}, "goosegrass": {"tested_on": "goosegrass", "assay": "Test C pre-/postemergence herbicide test", "format": "in vivo, Eleusine indica"}, "kochia": {"tested_on": "kochia", "assay": "Test C pre-/postemergence herbicide test", "format": "in vivo, Kochia scoparia"}, "lambsquarters": {"tested_on": "lambsquarters", "assay": "Test C pre-/postemergence herbicide test", "format": "in vivo, Chenopodium album"}, "morningglory": {"tested_on": "morningglory", "assay": "Test C pre-/postemergence herbicide test", "format": "in vivo, Ipomoea coccinea", "design": "key to Plant response rating, Morningglory: 0 = no effect, 100 = complete control"}, "[1]": {"tested_on": "smallflower umbrella sedge", "assay": "Test C flooded paddy test", "format": "in vivo, Cyperus difformis"}, "ducksalad": {"tested_on": "ducksalad", "assay": "Test C flooded paddy test", "format": "in vivo, Heteranthera limosa"}, "[2]": {"settings": "Postemergence, 500 g ai/ha, 0 to 100 scale, 0 no effect, 100 complete control"}, "[3]": {"settings": "Postemergence, 2000 g ai/ha, 0 to 100 scale, 0 no effect, 100 complete control"}, "[4]": {"settings": "Preemergence, 2000 g ai/ha, visual rating, 0 to 100 scale (0 no effect, 100 complete control)"}, "[5]": {"settings": "preemergence, 500 g ai/ha, visual injury, 0 to 100 scale (0 no effect, 100 complete control)"}, "[6]": {"settings": "Postemergence, 500 g ai/ha, scale 0 to 100"}, "[7]": {"settings": "Postemergence, 250 g ai/ha, scale 0 to 100, 0 no effect, 100 complete control"}, "[8]": {"settings": "postemergence, 125 g ai/ha, scale 0 to 100"}, "[9]": {"settings": "postemergence, 62 g ai/ha, scale 0 to 100"}, "[10]": {"settings": "125 g ai/ha, scale 0 to 100 (0 no effect, 100 complete control)"}, "[11]": {"settings": "250 g ai/ha, scale of 0 to 100, 0 is no effect, 100 is complete control"}, "[12]": {"settings": "500 g ai/ha, visual rating after 12 to 14 days, scale 0 to 100 (0 no effect, 100 complete control)"}}, "data": [{"smiles": "CCn1nc(C(C)(C)C)cc1C(=O)Nc1cccc(OC(F)(F)F)c1", "note": "[Compound 272]", "values": [{"measurement": "Barnyardgrass plant response rating", "setting": "barnyardgrass; [2]", "result": 55}, {"measurement": "Plant response rating, Barnyardgrass", "setting": "barnyardgrass; [3]", "result": 90}, {"measurement": "Barnyardgrass plant response rating", "setting": "barnyardgrass; [4]", "result": 100}, {"measurement": "Barnyardgrass plant response rating", "setting": "barnyardgrass; [5]", "result": 70}, {"measurement": "Foxtail, Giant plant response rating", "setting": "giant foxtail; [2]", "result": 45}, {"measurement": "Plant response rating, Foxtail, Giant", "setting": "giant foxtail; [3]", "result": 95}, {"measurement": "Foxtail, Giant plant response rating", "setting": "giant foxtail; [4]", "result": 100}, {"measurement": "Foxtail, Giant plant response rating", "setting": "giant foxtail; [5]", "result": 90}, {"measurement": "Pigweed plant response rating", "setting": "redroot pigweed; [2]", "result": 100}, {"measurement": "Plant response rating, Pigweed", "setting": "redroot pigweed; [3]", "result": 100}, {"measurement": "Pigweed plant response rating", "setting": "redroot pigweed; [4]", "result": 100}, {"measurement": "Pigweed plant response rating", "setting": "redroot pigweed; [5]", "result": 100}, {"measurement": "Bermudagrass plant response rating", "setting": "bermudagrass; [6]", "result": 100}, {"measurement": "Plant response rating, Bermudagrass", "setting": "bermudagrass; [7]", "result": 100}, {"measurement": "Plant response rating, Bermudagrass", "setting": "bermudagrass; [8]", "result": 80}, {"measurement": "Plant response rating, Bermudagrass", "setting": "bermudagrass; [9]", "result": 50}, {"measurement": "Cocklebur plant response rating", "setting": "cocklebur; [6]", "result": 95}, {"measurement": "Plant response rating, Cocklebur", "setting": "cocklebur; [7]", "result": 60}, {"measurement": "Plant response rating, Cocklebur", "setting": "cocklebur; [8]", "result": 60}, {"measurement": "Plant response rating, Cocklebur", "setting": "cocklebur; [9]", "result": 15}, {"measurement": "Cupgrass, Woolly plant response rating", "setting": "woolly cupgrass; [6]", "result": 65}, {"measurement": "Plant response rating, Cupgrass, Woolly", "setting": "woolly cupgrass; [7]", "result": 60}, {"measurement": "Plant response rating, Cupgrass, Woolly", "setting": "woolly cupgrass; [8]", "result": 40}, {"measurement": "Plant response rating, Cupgrass, Woolly", "setting": "woolly cupgrass; [9]", "result": 25}, {"measurement": "Goosegrass plant response rating", "setting": "goosegrass; [6]", "result": 80}, {"measurement": "Plant response rating, Goosegrass", "setting": "goosegrass; [7]", "result": 75}, {"measurement": "Plant response rating, Goosegrass", "setting": "goosegrass; [8]", "result": 65}, {"measurement": "Plant response rating, Goosegrass", "setting": "goosegrass; [9]", "result": 20}, {"measurement": "Kochia plant response rating", "setting": "kochia; [6]", "result": 100}, {"measurement": "Plant response rating, Kochia", "setting": "kochia; [7]", "result": 100}, {"measurement": "Plant response rating, Kochia", "setting": "kochia; [8]", "result": 100}, {"measurement": "Plant response rating, Kochia", "setting": "kochia; [9]", "result": 95}, {"measurement": "Lambsquarters plant response rating", "setting": "lambsquarters; [6]", "result": 100}, {"measurement": "Plant response rating, Lambsquarters", "setting": "lambsquarters; [7]", "result": 100}, {"measurement": "Plant response rating, Lambsquarters", "setting": "lambsquarters; [8]", "result": 100}, {"measurement": "Plant response rating, Lambsquarters", "setting": "lambsquarters; [9]", "result": 100}, {"measurement": "Morningglory plant response rating", "setting": "morningglory; [6]", "result": 100}, {"measurement": "Plant response rating, Morningglory", "setting": "morningglory; [7]", "result": 100}, {"measurement": "Plant response rating, Morningglory", "setting": "morningglory; [8]", "result": 100}, {"measurement": "Plant response rating, Morningglory", "setting": "morningglory; [9]", "result": 80}, {"measurement": "Sedge, Umbrella plant response rating", "setting": "[1]; 62 g ai/ha, scale 0 to 100", "result": 30}, {"measurement": "Sedge, Umbrella plant response rating", "setting": "[1]; [10]", "result": 65}, {"measurement": "Sedge, Umbrella plant response rating", "setting": "[1]; [11]", "result": 75}, {"measurement": "Plant response rating, Sedge, Umbrella", "setting": "[1]; [12]", "result": 75}, {"measurement": "Ducksalad plant response rating", "setting": "ducksalad; 62 g ai/ha, scale 0 to 100", "result": 10}, {"measurement": "Ducksalad plant response rating", "setting": "ducksalad; [10]", "result": 20}, {"measurement": "Ducksalad plant response rating", "setting": "ducksalad; [11]", "result": 40}, {"measurement": "Plant response rating, Ducksalad", "setting": "ducksalad; [12]", "result": 85}]}]}
